Results published in the supplement of paper PMC10307832.

Legend:
Assay in all cases: relative viability (nuclei count vs DMSO), 5 days (fraction); higher = more cells survive
Pictilisib + Decitabine = compound: CS(=O)(=O)N1CCN(Cc2cc3nc(-c4cccc5[nH]ncc45)nc(N4CCOCC4)c3s2)CC1 [Pictilisib] + Nc1ncn([C@H]2C[C@H](O)[C@@H](CO)O2)c(=O)n1 [Decitabine] (partner 2 µM)
How it was run: (§1)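 Relative viability equals treated-well nuclei counts divided by vehicle-well nuclei counts. Counts came from 4× images of lung cancer cell lines grown in 1536-well plates for 5 days after pin-tool dosing on the day after seeding. Dosing used one drug alone or a fixed anchor-drug dose plus five library-drug doses (not always all listed) in √10 steps, and values are medians of duplicate plates.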

MK-2206 + Phenformin = compound: NC1(c2ccc(-c3nc4ccn5c(=O)[nH]nc5c4cc3-c3ccccc3)cc2)CCC1 [MK-2206] + N=C(N)NC(=N)NCCc1ccccc1 [Phenformin] (partner 250 µM)
How it was run: as §1

MK-2206 + Lapatinib = compound: NC1(c2ccc(-c3nc4ccn5c(=O)[nH]nc5c4cc3-c3ccccc3)cc2)CCC1 [MK-2206] + CS(=O)(=O)CCNCc1ccc(-c2ccc3ncnc(Nc4ccc(OCc5cccc(F)c5)c(Cl)c4)c3c2)o1 [Lapatinib] (partner 2 µM)
How it was run: as §1

MK-2206 + Tozasertib = compound: NC1(c2ccc(-c3nc4ccn5c(=O)[nH]nc5c4cc3-c3ccccc3)cc2)CCC1 [MK-2206] + Cc1cc(Nc2cc(N3CCN(C)CC3)nc(Sc3ccc(NC(=O)C4CC4)cc3)n2)n[nH]1 [Tozasertib] (partner 0.1 µM)
How it was run: as §1

MK-2206 + Trametinib = compound: NC1(c2ccc(-c3nc4ccn5c(=O)[nH]nc5c4cc3-c3ccccc3)cc2)CCC1 [MK-2206] + CC(=O)Nc1cccc(-n2c(=O)n(C3CC3)c(=O)c3c(Nc4ccc(I)cc4F)n(C)c(=O)c(C)c32)c1 [Trametinib] (partner 0.02 µM)
How it was run: as §1

Cell Line	relative viability (Pictilisib + Decitabine; first compound 0.02 µM)	relative viability (Pictilisib + Decitabine; first compound 0.06325 µM)	relative viability (Pictilisib + Decitabine; first compound 0.6325 µM)	relative viability (Pictilisib + Decitabine; first compound 2 µM)	relative viability (MK-2206 + Phenformin; first compound 0.01 µM)	relative viability (MK-2206 + Phenformin; first compound 0.03162 µM)	relative viability (MK-2206 + Phenformin; first compound 0.3162 µM)	relative viability (MK-2206 + Phenformin; first compound 1 µM)	relative viability (MK-2206 + Lapatinib; first compound 0.01 µM)	relative viability (MK-2206 + Lapatinib; first compound 0.03162 µM)	relative viability (MK-2206 + Lapatinib; first compound 0.3162 µM)	relative viability (MK-2206 + Lapatinib; first compound 1 µM)	relative viability (MK-2206 + Tozasertib; first compound 0.01 µM)	relative viability (MK-2206 + Tozasertib; first compound 0.03162 µM)	relative viability (MK-2206 + Tozasertib; first compound 0.3162 µM)	relative viability (MK-2206 + Tozasertib; first compound 1 µM)	relative viability (MK-2206 + Trametinib; first compound 0.01 µM)	relative viability (MK-2206 + Trametinib; first compound 0.03162 µM)	relative viability (MK-2206 + Trametinib; first compound 0.3162 µM)	relative viability (MK-2206 + Trametinib; first compound 1 µM)
RERF-LC-KJ	0.711	0.618	0.54	0.479	0.413	0.423	0.408	0.333	0.871	0.902	0.723	0.787	0.538	0.529	0.461	0.364	0.808	0.903	0.725	0.718
NCI-H647	0.308	0.389	0.276	0.236	0.479	0.542	0.38	0.542	1.01	1.15	1.06	0.521	0.316	0.377	0.289	0.233	0.457	0.473	0.429	0.364
NCI-H1734	0.472	0.481	0.418	0.338	0.355	0.458	0.304	0.338	0.758	1.05	0.789	0.869	0.28	0.244	0.261	0.252	0.633	0.646	0.535	0.478
SK-LU-1	0.612	0.695	0.559	0.525	0.536	0.602	0.476	0.503	0.91	0.861	0.822	0.967	0.212	0.334	0.376	0.291	0.556	0.513	0.449	0.431
NCI-H1395	0.708	0.798	0.652	0.5	0.508	0.481	0.4	0.354	1.01	1.3	0.774	0.759	0.825	0.693	0.683	0.631	1.02	1.16	0.804	0.897
COR-L23	0.443	0.474	0.402	0.372	0.417	0.452	0.422	0.459	0.949	1.03	0.92	1.1	0.186	0.243	0.234	0.17	0.547	0.558	0.522	0.476
EMC-BAC-2	0.967	0.978	0.838	0.653	0.526	0.546	0.475	0.431	0.859	0.959	0.901	0.805	0.333	0.298	0.271	0.261	0.863	0.799	0.78	0.673
NCI-H1355	0.336	0.388	0.383	0.331	0.434	0.476	0.4	0.317	0.97	1.04	0.851	0.743	0.555	0.587	0.533	0.47	0.407	0.414	0.363	0.378
NCI-H1944	0.423	0.352	0.391	0.315	0.197	0.217	0.169	0.185	0.829	0.849	0.823	0.904	0.249	0.244	0.251	0.24	0.405	0.41	0.392	0.385
HOP-62	0.215	0.283	0.267	0.329	0.62	0.725	0.701	0.699	0.946	1.12	0.939	1.26	0.381	0.39	0.391	0.322	0.381	0.368	0.334	0.328
NCI-H2009	0.443	0.406	0.412	0.329	0.474	0.464	0.436	0.4	0.825	1.01	0.936	0.986	0.657	0.674	0.677	0.639	0.252	0.299	0.248	0.254
